Values quoted from earlier work as cited in patent US20220249345A1, “PRODUCT FOR TREATING KERATINOUS FIBERS, CONTAINING SILANES OF SPECIFIC FORMULAE” (Henkel AG & Co. KGaA, priority 2019, published 2022).
Read-outs that look alike come from different tables or passages of the source.

Row | solubility in water (at about 25° C.) | Structure (SMILES) | solubility in water (25° C.)
1 |  | O=S(=O)([O-])c1ccc(N=Nc2c(O)ccc3ccccc23)cc1.[Na+] [Acid Orange 7, sodium salt of 4-[(2-hydroxy-1-naphthyl)azo]benzene sulphonate] | more than 7 g/L
2 |  | Nc1cc(S(=O)(=O)[O-])cc2cc(S(=O)(=O)[O-])c(N=Nc3ccccc3)c(O)c12.[Na+].[Na+] [Acid Red 33, diantrium salt of 5-amino-4-hydroxy-3-(phenylazo)-naphthalene-2,7-disulphonate] | about 2.5 g/L
3 | highly soluble in water | O=C([O-])C1=NN(c2ccc(S(=O)(=O)[O-])cc2)C(=O)C1N=Nc1ccc(S(=O)(=O)[O-])cc1.[Na+].[Na+].[Na+] (stereo not drawn) [Acid Yellow 23, trisodium salt of 4,5-dihydro-5-oxo-1-(4-sulfophenyl)-4-((4-sulfophenyl)azo)-1H-pyrazole-3-carboxylic acid] | 
